According to PubChem BioAssay AID248 (DTP/NCI, 2004):
Where “and” joins values, the source holds several entries; their conditions need not be identical. Identical values can stand only once. Toxic doses and inconclusive results are not listed. Rule as the data show it: active = T/C of 150% or more; inactive = T/C below 125%.

Tested on: L1210 leukemia ip in BDF1 mice, survival T/C
Assay: NCI In Vivo Anticancer Drug Screen. Data for tumor model L1210 Leukemia (intraperitoneal) in B6D2F1 (BDF1) mice
Conditions: endpoint: mean survival time, higher = longer survival
Summary of the method: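 Ratio derived from survival: compound-dosed mice over vehicle-dosed mice, all bearing a transplantable tumor.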

[1] = dose: 100.0 mg/kg/injection, schedule: Q01DX009 (ip), vehicle: saline with Tween-80
[2] = dose: 200.0 mg/kg/injection, schedule: Q01DX009 (ip), vehicle: saline with Tween-80
[3] = dose: 100.0 mg/kg/injection, schedule: Q04DX003 (ip), vehicle: saline
[4] = dose: 200.0 mg/kg/injection, schedule: Q04DX003 (ip), vehicle: saline
[5] = dose: 50.0 mg/kg/injection, schedule: Q01DX009 (ip), vehicle: saline with Tween-80
[6] = dose: 100.0 mg/kg/injection, schedule: Q01DX001 (ip), vehicle: carboxymethylcellulose (CMC)
[7] = dose: 200.0 mg/kg/injection, schedule: Q01DX001 (ip), vehicle: carboxymethylcellulose (CMC)
[8] = dose: 400.0 mg/kg/injection, schedule: Q01DX001 (ip), vehicle: carboxymethylcellulose (CMC)
[9] = dose: 100.0 mg/kg/injection, schedule: Q01DX001 (ip), vehicle: saline
[10] = dose: 200.0 mg/kg/injection, schedule: Q01DX001 (ip), vehicle: saline
[11] = dose: 400.0 mg/kg/injection, schedule: Q01DX001 (ip), vehicle: saline
[12] = dose: 100.0 mg/kg/injection, schedule: Q04DX003 (ip), vehicle: saline with Tween-80
[13] = dose: 200.0 mg/kg/injection, schedule: Q04DX003 (ip), vehicle: saline with Tween-80
[14] = dose: 400.0 mg/kg/injection, schedule: Q01DX009 (ip), vehicle: saline with Tween-80
[15] = dose: 400.0 mg/kg/injection, schedule: Q04DX003 (ip), vehicle: saline with Tween-80
[16] = dose: 50.0 mg/kg/injection, schedule: Q01DX001 (ip), vehicle: carboxymethylcellulose (CMC)
[17] = dose: 50.0 mg/kg/injection, schedule: Q04DX003 (ip), vehicle: saline
[18] = dose: 25.0 mg/kg/injection, schedule: Q01DX009 (ip), vehicle: saline
[19] = dose: 50.0 mg/kg/injection, schedule: Q01DX009 (ip), vehicle: saline
[20] = dose: 100.0 mg/kg/injection, schedule: Q01DX009 (ip), vehicle: saline
[21] = dose: 100.0 mg/kg/injection, schedule: Q01DX001 (ip), vehicle: saline with Tween-80

Measured: T/C

Oc1cc(-c2cc(O)c(O)c(O)c2)cc(O)c1O
inactive: [1] 104 % of control | [2] 108 % of control

N#Cc1ccccc1N=NNc1ccc(-c2nc(N)nc(N)n2)cc1
inactive: [3] 94 % of control | [4] 89 % of control | dose: 400.0 mg/kg/injection, schedule: Q04DX003 (ip), vehicle: saline 89 % of control

COc1cc2c(cc1O)CCCC2=O
inactive: [5] 96 % of control | [1] 93 % of control | [2] 96 % of control

OCC1OC(n2cc(Br)c3c(=S)nc[nH]c32)C(O)C1O (stereo unspecified)
inactive: [6] 104 % of control | [7] 110 % of control | [8] 106 % of control

Cc1ccc2c(ccc3ccccc32)n1
inactive: dose: 100.0 mg/kg/injection, schedule: Q04DX003 (ip), vehicle: Klucel (hydroxypropylcellulose) (HPC) 97 % of control | dose: 200.0 mg/kg/injection, schedule: Q04DX003 (ip), vehicle: Klucel (hydroxypropylcellulose) (HPC) 90 % of control | dose: 400.0 mg/kg/injection, schedule: Q04DX003 (ip), vehicle: Klucel (hydroxypropylcellulose) (HPC) 90 % of control

BrCCOc1ccccc1
inactive: dose: 100.0 mg/kg/injection, schedule: Q01DX009 (ip), vehicle: other 95 % of control | dose: 200.0 mg/kg/injection, schedule: Q01DX009 (ip), vehicle: other 101 % of control

O=Cc1[nH]c(=S)[nH]c(=O)c1Cc1ccc(Cl)cc1
inactive: [9] 96 % of control | [10] 93 % of control | [11] 96 % of control

CC(C)CCCC(C)C1CCC2C3CCC4CN(N=O)CCC4C3CCC12C (stereo unspecified)
inactive: dose: 100.0 mg/kg/injection, schedule: Q01DX001 (sc), vehicle: steriod suspending solution 102 % of control | dose: 177.6 mg/kg/injection, schedule: Q01DX001 (sc), vehicle: steriod suspending solution 95 % of control | dose: 200.0 mg/kg/injection, schedule: Q01DX001 (sc), vehicle: steriod suspending solution 102 % of control | dose: 266.8 mg/kg/injection, schedule: Q01DX001 (sc), vehicle: steriod suspending solution 98 % of control | dose: 600.0 mg/kg/injection, schedule: Q01DX001 (sc), vehicle: steriod suspending solution 98 % of control

CC(=O)OC1CCCCC1N (stereo unspecified)
inactive: dose: 100.0 mg/kg/injection, schedule: Q04DX002 (ip), vehicle: saline 100 % of control and 91 % of control | dose: 200.0 mg/kg/injection, schedule: Q04DX002 (ip), vehicle: saline 92 % of control and 103 % of control | dose: 400.0 mg/kg/injection, schedule: Q04DX002 (ip), vehicle: saline 103 % of control and 114 % of control

CCOP(=O)(OCC)C(C)C#N (stereo unspecified)
inactive: dose: 15.0 mg/kg/injection, schedule: Q01DX001 (ip), vehicle: saline 95 % of control | dose: 30.0 mg/kg/injection, schedule: Q01DX001 (ip), vehicle: saline 100 % of control

O=C(CC(O)(C(F)(F)Cl)C(F)(F)Cl)c1cccs1
inactive: dose: 50.0 mg/kg/injection, schedule: Q04DX003 (ip), vehicle: saline with Tween-80 101 % of control | [1] 108 % of control | [12] 101 % of control | [2] 114 % of control | [13] 98 % of control | [14] 98 % of control | [15] 98 % of control

CCOC(=O)Nc1ccc2c(c1)/C(=N\NC(N)=S)c1ccccc1-2
inactive: [16] 94 % of control | [17] 86 % of control | dose: 75.0 mg/kg/injection, schedule: Q01DX009 (ip), vehicle: saline with Tween-80 101 % of control | [6] 102 % of control | [9] 93 % of control | [3] 92 % of control | dose: 150.0 mg/kg/injection, schedule: Q01DX009 (ip), vehicle: saline with Tween-80 113 % of control | [7] 105 % of control | [10] 96 % of control | [4] 100 % of control | [8] 100 % of control

CC(C)(C)NC(=O)C(Cl)(Cl)Cl
inactive: dose: 31.25 mg/kg/injection, schedule: Q01DX009 (ip), vehicle: Klucel (hydroxypropylcellulose) (HPC) 98 % of control | dose: 62.5 mg/kg/injection, schedule: Q01DX009 (ip), vehicle: Klucel (hydroxypropylcellulose) (HPC) 107 % of control | dose: 125.0 mg/kg/injection, schedule: Q01DX009 (ip), vehicle: Klucel (hydroxypropylcellulose) (HPC) 109 % of control | dose: 250.0 mg/kg/injection, schedule: Q01DX009 (ip), vehicle: Klucel (hydroxypropylcellulose) (HPC) 94 % of control

Cc1cc(SCC(=O)c2ccc(Br)cc2)cc(C)[o+]1
inactive: [18] 92 % of control | [19] 107 % of control | [20] 100 % of control | [3] 97 % of control | [4] 92 % of control

Cn1c(-c2ccccc2)nc2c(N)ncnc21
inactive: dose: 25.0 mg/kg/injection, schedule: Q01DX001 (ip), vehicle: saline with Tween-80 95 % of control | dose: 50.0 mg/kg/injection, schedule: Q01DX001 (ip), vehicle: saline with Tween-80 90 % of control | [21] 90 % of control

O=[N+]([O-])c1ccc(N/N=C2\CCCCCC2c2ccccc2)c([N+](=O)[O-])c1 (stereo unspecified)
inactive: dose: 100.0 mg/kg/injection, schedule: Q04DX002 (ip), vehicle: Klucel (hydroxypropylcellulose) (HPC) 100 % of control | dose: 200.0 mg/kg/injection, schedule: Q04DX002 (ip), vehicle: Klucel (hydroxypropylcellulose) (HPC) 96 % of control | dose: 400.0 mg/kg/injection, schedule: Q04DX002 (ip), vehicle: Klucel (hydroxypropylcellulose) (HPC) 100 % of control

O=C1CCC/C1=C/c1ccco1
inactive: dose: 100.0 mg/kg/injection, schedule: Q04DX002 (ip), vehicle: saline with Tween-80 105 % of control | dose: 200.0 mg/kg/injection, schedule: Q04DX002 (ip), vehicle: saline with Tween-80 105 % of control | dose: 400.0 mg/kg/injection, schedule: Q04DX002 (ip), vehicle: saline with Tween-80 94 % of control

N#Cc1cccnc1
inactive: [19] 97 % of control | [20] 110 % of control | [12] 90 % of control | dose: 200.0 mg/kg/injection, schedule: Q01DX009 (ip), vehicle: saline 108 % of control | [13] 102 % of control | [15] 104 % of control

Cc1ccc(C)c2c1CCCC2=O
inactive: dose: 12.5 mg/kg/injection, schedule: Q01DX009 (ip), vehicle: saline with Tween-80 110 % of control | dose: 25.0 mg/kg/injection, schedule: Q01DX009 (ip), vehicle: saline with Tween-80 107 % of control and 114 % of control | [5] 98 % of control and 106 % of control | [1] 88 % of control | [2] 93 % of control | [14] 96 % of control

c1ccc(CNc2cccc3c(NCc4ccccc4)cccc23)cc1
inactive: [21] 87 % of control | [1] 86 % of control | [12] 88 % of control | dose: 200.0 mg/kg/injection, schedule: Q01DX001 (ip), vehicle: saline with Tween-80 95 % of control | [2] 93 % of control | dose: 400.0 mg/kg/injection, schedule: Q01DX001 (ip), vehicle: saline with Tween-80 88 % of control | [14] 95 % of control

O=S(=O)(O)c1ccccc1O
inactive: [18] 101 % of control | [19] 98 % of control

CN(CCCl)Cc1ccc(-c2c3ccccc3cc3c2ccc2ccccc23)cc1
inactive: dose: 25.0 mg/kg/injection, schedule: Q01DX001 (ip), vehicle: carboxymethylcellulose (CMC) 97 % of control | [16] 89 % of control | [6] 92 % of control

NC(=O)/C=C\C(N)=O
inactive: [19] 103 % of control | [17] 100 % of control | [20] 99 % of control | [3] 104 % of control | [4] 99 % of control

Cc1nc(SC(=N)N)nc2c1CCO2
inactive: [9] 96 % of control | [10] 97 % of control | [11] 88 % of control

COC(=O)NC(C)(NC(=O)OC)C(=O)OC
inactive: [1] 104 % of control | [2] 106 % of control | [14] 97 % of control

Cc1ccccc1SCN(CSc1ccccc1C)C(C)(C)CC(C)(C)C
inactive: [6] 101 % of control
